Usually pIC50 stands for the IC50 on a negative log10 scale, so that one unit is a factor of ten.

In assay [1] the target is T1, acyl-CoA: cholesterol acyltransferase (ACAT) (Oryctolagus cuniculus, UniProt G1SFD9).
T1 construct: in a tissue preparation containing rabbit intestinal microsomes; from tissue; host or cells: rabbit intestinal microsomes
T1 sequence (G1SFD9 1-524): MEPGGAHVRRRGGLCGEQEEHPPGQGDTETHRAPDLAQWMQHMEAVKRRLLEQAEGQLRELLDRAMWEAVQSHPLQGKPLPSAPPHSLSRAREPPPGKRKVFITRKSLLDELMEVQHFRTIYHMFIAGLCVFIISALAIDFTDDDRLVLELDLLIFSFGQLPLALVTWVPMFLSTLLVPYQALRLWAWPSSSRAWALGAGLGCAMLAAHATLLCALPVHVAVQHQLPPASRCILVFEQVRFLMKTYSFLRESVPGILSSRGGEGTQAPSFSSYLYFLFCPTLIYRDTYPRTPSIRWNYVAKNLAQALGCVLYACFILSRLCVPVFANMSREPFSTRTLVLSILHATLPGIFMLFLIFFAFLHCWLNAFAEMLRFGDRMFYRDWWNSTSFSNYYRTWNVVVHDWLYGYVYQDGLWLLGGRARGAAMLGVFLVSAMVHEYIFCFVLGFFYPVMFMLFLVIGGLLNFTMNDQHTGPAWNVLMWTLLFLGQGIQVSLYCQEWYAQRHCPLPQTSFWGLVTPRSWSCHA
The assay is described as follows: in vitro inhibition of ACAT (IAI), radiolabeled cholesterol oleate formation in rabbit intestinal microsomes. Type of assay: biochemical. The procedure:
The ability of representative compounds of the present invention to inhibit ACAT was measured using an in vitro test more fully described in F. J. Field and R. G. Salone, Biochemica et Biophysica 712:557-570 (1982). The test assesses the ability of a test compound to inhibit the acylation of cholesterol by oleic acid by measuring the amount of radiolabeled cholesterol oleate formed from radiolabeled oleic acid in a tissue preparation containing rabbit intestinal microsomes.

In another assay the test system is Plasma TC. The assay is described as follows: in vivo screen designated APCC, plasma total cholesterol in rats on high fat, high cholesterol diet. Set-up: species or system male Sprague-Dawley rats. Conditions: dosed at 30 mg/kg; rat; high fat, high cholesterol diet with 0.5% cholic acid; read-out: % Change in Plasma TC Values (mg/dl). The text has this: In one in vivo screen designated APCC, male Sprague-Dawley rats (200 to 225 g) were randomly divided into treatment groups and dosed at 4 PM with either vehicle (CMC/Tween) or suspensions of compounds in vehicle. The normal chow diet was then replaced with a high fat, high cholesterol diet with 0.5% cholic acid. The rats consumed this diet ad libitum during the night and were sacrificed at 8 AM to obtain blood samples for cholesterol analysis using standard procedures. Statistical differences between mean cholesterol values for the same vehicle were determined using analysis of variance followed by Fisher's least significant test. Compounds were dosed at 30 mg/kg unless otherwise noted.

Structures are written as SMILES. pIC50: −log10 of the molar value. Where two headings read alike, the source gives them in different places.

Regarding `CC(C)c1cccc(C(C)C)c1NC(=O)NS(=O)(=O)N(C(C)C)C(C)C` [Example 28, N-[2,6-bis(1-methylethyl)phenyl]-N'-[(diisopropylamino)sulfonyl]urea], in assay [1], the negative-log IC50 (pIC50) is 5.96. Also, the change in vivo at 30 mg/kg with Plasma TC is -60%.

As to `CCCCN(CCCC)S(=O)(=O)N(C)C(=O)Nc1c(C(C)C)cccc1C(C)C` [Example 44], in assay [1] (rabbit intestinal microsomes, read-out: IAI IC50), the pIC50 was below 5.30. In the assay on Plasma TC, the change in vivo at 30 mg/kg is -8%.

Values taken from patent US5288757A, “Aminosulfonyl urea ACAT inhibitors and a method of lowering blood cholesterol levels therewith” (priority 1993, dated 1994).
